Laboratory results taken from publication PMC7440923, “Measuring protein stability in the GroEL chaperonin cage reveals massive destabilization” (eLife, 2020).

Key:
[1] = target: T1, DHFRMp fused to eGFP (chimera), free in bulk solution (Moritella profunda, UniProt Q70YQ6); assay: differential scanning fluorimetry, SYPRO Orange; assay type: binding; conditions: 500 µM ligand, 5 µM chimera, working buffer pH 8.0; transition of the DHFRMp part
T1 construct: gene dyrA; N-terminal His7-eGFP (A206K)-linker with TEV site-DHFRMp at the C-terminus; fusion uncut; E. coli BL21; not encapsulated

GroEL = target: T2, GroEL (Escherichia coli, UniProt P0A6F5 1-548); assay: SEC; freshly assembled football complexes: acid-denatured eGFP added to GroEL and GroES oligomers in folding buffer, assembly started with Na2SO4, NaF, BeSO4 and ATP; gel-filtration in working buffer (20 mM Hepes pH 8.0, 100 mM KCl, 50 mM MgCl2, 50 mM Na2SO4, 10 mM NaF, 1 mM BeSO4, 1 mM DTT); A280 and A485, fractions by SDS-PAGE; conditions: both partners purified
T2 construct: GroEL chaperonin of the Escherichia coli GroE system; used as 'GroEL oligomer'; Expression and purification of GroEL are not described; also called GroEL oligomer
T2 sequence (P0A6F5 whole entry): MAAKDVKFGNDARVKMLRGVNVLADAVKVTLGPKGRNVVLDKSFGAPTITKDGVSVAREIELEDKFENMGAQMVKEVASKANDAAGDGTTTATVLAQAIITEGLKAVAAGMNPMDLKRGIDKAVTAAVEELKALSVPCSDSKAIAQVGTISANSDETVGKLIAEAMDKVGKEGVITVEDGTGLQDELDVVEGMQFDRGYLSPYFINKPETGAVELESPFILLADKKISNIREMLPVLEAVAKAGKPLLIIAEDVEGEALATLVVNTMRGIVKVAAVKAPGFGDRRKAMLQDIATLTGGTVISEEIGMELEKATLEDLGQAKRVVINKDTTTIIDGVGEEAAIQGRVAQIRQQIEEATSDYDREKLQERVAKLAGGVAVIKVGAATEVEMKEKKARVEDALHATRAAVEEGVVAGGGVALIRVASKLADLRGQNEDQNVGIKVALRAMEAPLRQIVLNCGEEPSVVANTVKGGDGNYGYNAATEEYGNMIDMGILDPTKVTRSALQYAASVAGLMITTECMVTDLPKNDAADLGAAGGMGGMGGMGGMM

purified protein = substrate: Nc1nc2c(c(=O)[nH]1)N=C(CNc1ccc(C(=O)N[C@@H](CCC(=O)O)C(=O)O)cc1)CN2; assay: purified protein; assay type: biochemical, Moritella profunda; conditions: 350 µM NADPH, 23 °C, working buffer (20 mM Hepes pH 8.0, 100 mM KCl, 50 mM MgCl2, 50 mM Na2SO4, 10 mM NaF, 1 mM BeSO4, 1 mM DTT), free chimera in bulk solution

| increase in melting temperature (dTm) [1] | Molecule | other results |
| --- | --- | --- |
| ~ 31 °C | Nc1nc2c(c(=O)[nH]1)N=C(CNc1ccc(C(=O)N[C@@H](CCC(=O)O)C(=O)O)cc1)CN2 [dihydrofolate] | – |
| ~ 8 °C | NC(=O)C1=CN([C@@H]2O[C@H](COP(=O)(O)OP(=O)(O)OC[C@H]3O[C@@H](n4cnc5c(N)ncnc54)[C@H](OP(=O)(O)O)[C@@H]3O)[C@@H](O)[C@H]2O)C=CC1 [NADPH] | – |
| – | GroES (natural protein, Escherichia coli, UniProt P0A6F9 1-97, looked up, GroES, co-factor of GroEL in the Escherichia coli GroE system; used as 'GroES oligomer'; Expression and purification of GroES are not described; also called GroES oligomer) MNIRPLHDRVIVKRKEVETKSAGGIVLTGSAAAKSTRGEVLAVGNGRILENGEVKPLDVKVGDIVIFNDGYGVKSEKIDNEEVLIMSESDILAIVEA | binding result (GroEL): binds |
| – | DHFRMp fused to eGFP (chimera), free in bulk solution (Moritella profunda) (protein, N-terminal His7-eGFP (A206K)-linker with TEV site-DHFRMp at the C-terminus; fusion uncut; E. coli BL21; not encapsulated) MIVSMIAALANNRVIGLDNKMPWHLPAELQLFKRATLGKPIVMGRNTFESIGRPLPGRLNIVLSRQTDYQPEGVTVVATLEDAVVAAGDVEELMIIGGATIYNQCLAAADRLYLTHIELTTEGDTWFPDYEQYNWQEIEHESYAADDKNPHNYRFSLLERVK | Km (purified protein): 33 (±2) µM |
